{
  "source": "patent US4596806A",
  "about": "“7-piperidino-1,2,3,5-tetrahydroimidazo[2,1-b]-quinazolin-2-one having platelet aggregation inhibitory activity” (Daiichi Seiyaku Co., Ltd., priority 1983, dated 1986)",
  "key": {"platelet aggregation [1]": {"system": "platelet aggregation", "test": "Test of Platelet Aggregation Inhibition (ex vivo; i.v.)", "parameters": "species or system rat (male Wistar-Imamichi)", "settings": "Rattus norvegicus, iv, 0.25 h, 15 min, read-out: Platelet Aggregation Inhibitory Activity (in vivo: % inhibition); for inhibition at 0.02 mg/kg: i.v. 0.02 mg/Kg/min; for inhibition at 0.067 mg/kg: i.v. 0.067 mg/Kg/min", "protocol": "As test animals, 5 male Wistar-Imamichi rats (body weight: about 270 g) that had been allowed food and water ad libitum were used per group. The test compound was dissolved in a physiological saline solution (J.P.) and continuously injected to the rats under anesthesia with pentobarbital through the femoral vein. 15 minutes later, citrated blood was taken from the heart, and platelet aggregation was determined in the same manner as in Test Example 2."}, "[2]": {"system": "B16BL6-Induced Acute Pulmonary Embolism", "test": "Test of Inhibition of Death by Acute Pulmonary Embolism", "format": "in vivo, C57BL/6 mouse", "protocol": "The compound of the present invention (dihydrochloride monohydrate) was dissolved in a physiological saline solution (J.P.) and intravenously administered to the tail vein of a 5-week-old (C57BL/6 male mouse (body weight: about 18.5 g) at a dose of 10 mg/kg or 30 mg/kg. After 3 minutes, 5×10^5 cells of B16BL6 were intravenously inoculated to the tail vein. The death ratios 3 and 10 minutes after the inoculation are shown in Table 6."}, "[3]": {"test": "LD50 (probit method), mouse", "settings": "in vivo, iv"}, "[4]": {"system": "pancreatic juice secretion", "test": "Test of Stimulation on Pancreatic Juice Secretion in Dog", "format": "in vivo, dog (adult mongrel)", "settings": "for total output amount of bicarbonate ions as compared with the control: 30 minutes after administration; for Pancreatic Juice Secretion, Total: total 0-60 min; for total volume of pancreatic juice as compared with the control (100%): total after 60 minutes", "protocol": "Adult mongrel dogs (male and female) having a body weight of 11.8 to 15.8 Kg were anesthetized with Nembutal and Phenobal and a cannula was inserted into pancreatic duct. A solution of Compound (I) dissolved in a physiological saline solution was administered intravenously from femoral vein at a dose of 0.5 ml/Kg. The volume of pancreatic juice was determined in a polyethylene tube connected to the cannula, and the bicarbonate ion concentration in the pancreatic juice was determined by neutralization titration. As a control, a physiological saline solution was administered intravenously."}, "[5]": {"system": "platelet aggregation due to addition of B16BL6 cells", "test": "Test of Inhibition of Platelet Aggregation Caused by Cancer Cells (in vitro), B16BL6", "format": "cell-based, C57BL/6 mouse", "protocol": "Blood was taken from the abdominal vein of a 7-week-old C57BL/6 male mouse into a syringe containing 1/10 volume of a 3.13% aqueous solution of sodium citrate dihydrate as an anticoagulant. The thus prepared citrated blood sample was centrifuged at 230×g at room temperature for 7 minutes. The resulting supernatant fluid was used as PRP. The remainder was further centrifuged at 1,500×g at room temperature for 10 minutes, and the supernatant fluid was used as platelet-poor-plasma (PPP). Platelet count in PRP was adjusted to 450,000 per mm^3 by PPP. A 450 μl of PRP was placed in a reaction tube and subjected to centrifugation at 950 rpm at 30° C. About 1 minute later while continuing the centrifugation, 5 μl of a 200 mM calcium chloride aqueous solution was added to the system to a final concentration of […]. 30 seconds later, 5 μl of a saline solution of the compound (I) (dihydrochloride monohydrate) was added to the system, and additional 30 seconds later, 50 μl of a cell suspension containing 1×10^5 cells of B16 melamona BL6 (B16BL6) originated in a C57BL mouse or 50 μl of a cell suspension containing 1×10^6 cells of Lewis lung cancer (3LL) originated in a C57BL mouse was added thereto. Platelet aggregation of the sample system was determined from changes in transmittancy by use of an aggregometer. […]"}, "platelet aggregation [6]": {"system": "platelet aggregation", "test": "Test of Platelet Aggregation Inhibition (in vitro), human PRP", "format": "cell-based", "settings": "for IC50: Homo sapiens, Platelet, human blood, read-out: Platelet Aggregation Inhibitory Activity (in vitro: IC50)", "protocol": "The test was performed as follows in accordance with the method of Ashida et al, Thrombosis and Haemostasis, Vol. 40, p542 (1979).\nBlood was taken by puncture from the heart of a Wistar Imamichi rat under anesthesia with pentobarbital into a syringe containing 1/10 volume of a 3.13% aqueous solution of sodium citrate dihydrate, and the citrated blood was centrifuged to obtain a platelet-rich-plasma (PRP). In the same manner, citrated blood was collected from the vein of a healthy human who had not taken aspirin or any other anti-inflammatory agent since before 10 days, followed by centrifugation to obtain PRP. 0.005 ml of each test compound was added to 0.445 ml each of these PRP samples, and the system was warmed at 30° C. for 1 minute. 0.05 ml of an aggregation inducer (ADP or collagen) was then added thereto, and platelet aggregation was determined according to the method of Born, Nature, Vol. 194, p927 (1962). The inhibitory activity of platelet aggregation was expressed in terms of 50% inhibition concentration, and the results obtained are shown in Table 2."}},
  "note": "Where two headings read alike, the source gives them in different places.",
  "data": [
    {"smiles": "O=C1CN2Cc3cc(N4CCCCC4)ccc3N=C2N1", "note": "[Compound (I), 7-piperidino-1,2,3,5-tetrahydroimidazo[2,1-b]quinazolin-2-one]", "values": [
      {"measurement": "inhibition at 0.02 mg/kg", "setting": "platelet aggregation [1]; inducer ADP", "result": 11, "unit": "%"},
      {"measurement": "inhibition at 0.02 mg/kg", "setting": "platelet aggregation [1]; inducer collagen", "result": 86, "unit": "%"},
      {"measurement": "inhibition at 0.067 mg/kg", "setting": "platelet aggregation [1]; inducer ADP", "result": 37, "unit": "%"},
      {"measurement": "inhibition at 0.067 mg/kg", "setting": "platelet aggregation [1]; inducer collagen", "result": 100, "unit": "%"},
      {"measurement": "Number of Dead Animals/Number of Tested Animals", "setting": "[2]; i.v. 10 mg/kg, after 3 min", "result": "2/9"},
      {"measurement": "Number of Dead Animals/Number of Tested Animals", "setting": "[2]; i.v. 10 mg/kg, after 10 min", "result": "4/9"},
      {"measurement": "Number of Dead Animals/Number of Tested Animals", "setting": "[2]; i.v. 30 mg/kg, after 3 min", "result": "1/9"},
      {"measurement": "Number of Dead Animals/Number of Tested Animals", "setting": "[2]; i.v. 30 mg/kg, after 10 min", "result": "4/9"},
      {"measurement": "LD50", "setting": "[3]; female ddy mouse", "result": 380, "unit": "mg/kg"},
      {"measurement": "LD50", "setting": "[3]; male ddy mouse", "result": 314, "unit": "mg/kg"},
      {"measurement": "total output amount of bicarbonate ions as compared with the control", "setting": "[4]; 300 μg/Kg", "result": 198, "unit": "%"},
      {"measurement": "bicarbonate ion concentration in pancreatic juice as compared with the control", "setting": "[4]; 1000 μg/Kg", "result": 266, "unit": "%"},
      {"measurement": "total output amount of bicarbonate ions as compared with the control", "setting": "[4]; 1000 μg/Kg", "result": 674, "unit": "%"},
      {"measurement": "bicarbonate ion concentration in pancreatic juice as compared with the control", "setting": "[4]; i.v. 100 μg/Kg", "result": 109, "unit": "%"},
      {"measurement": "total output amount of bicarbonate ions as compared with the control", "setting": "[4]; i.v. 100 μg/Kg", "result": 116, "unit": "%"},
      {"measurement": "Amount of Bicarbonate Ion Secretion", "setting": "[4]; i.v. 100 μg/kg", "result": "44.6 ± 9.3", "unit": "µEq/h"},
      {"measurement": "Bicarbonate Ion Concentration", "setting": "[4]; i.v. 100 μg/kg", "result": "44.5 ± 6.1", "unit": "mEq/l"},
      {"measurement": "activity on the pancreatic juice secretion (in words)", "setting": "[4]; i.v. 100 μg/kg", "result": "did not show any significant activity"},
      {"measurement": "Pancreatic Juice Secretion", "setting": "[4]; i.v. 100 μg/kg, 0-15 min", "result": "323 ± 81", "unit": "µL"},
      {"measurement": "Pancreatic Juice Secretion", "setting": "[4]; i.v. 100 μg/kg, 15-30 min", "result": "223 ± 45", "unit": "µL"},
      {"measurement": "Pancreatic Juice Secretion", "setting": "[4]; i.v. 100 μg/kg, 30-45 min", "result": "178 ± 31", "unit": "µL"},
      {"measurement": "Pancreatic Juice Secretion", "setting": "[4]; i.v. 100 μg/kg, 45-60 min", "result": "226 ± 48", "unit": "µL"},
      {"measurement": "Pancreatic Juice Secretion, Total", "setting": "[4]; i.v. 100 μg/kg", "result": "950 ± 185", "unit": "µL"},
      {"measurement": "bicarbonate ion concentration in pancreatic juice as compared with the control", "setting": "[4]; i.v. 300 μg/Kg", "result": 130, "unit": "%"},
      {"measurement": "total volume of pancreatic juice as compared with the control (100%)", "setting": "[4]; i.v. 300 μg/Kg", "result": 161, "unit": "%"},
      {"measurement": "Amount of Bicarbonate Ion Secretion", "setting": "[4]; i.v. 300 μg/kg", "result": "65.9 ± 9.6", "unit": "µEq/h"},
      {"measurement": "Bicarbonate Ion Concentration", "setting": "[4]; i.v. 300 μg/kg", "result": "45.8 ± 2.1", "unit": "mEq/l"},
      {"measurement": "Pancreatic Juice Secretion", "setting": "[4]; i.v. 300 μg/kg, 0-15 min", "result": "521 ± 112", "unit": "µL"},
      {"measurement": "Pancreatic Juice Secretion", "setting": "[4]; i.v. 300 μg/kg, 15-30 min", "result": "321 ± 53", "unit": "µL"},
      {"measurement": "Pancreatic Juice Secretion", "setting": "[4]; i.v. 300 μg/kg, 30-45 min", "result": "291 ± 44", "unit": "µL"},
      {"measurement": "Pancreatic Juice Secretion", "setting": "[4]; i.v. 300 μg/kg, 45-60 min", "result": "310 ± 31", "unit": "µL"},
      {"measurement": "pancreatic juice secretion as compared with the control (100%)", "setting": "[4]; i.v. 300 μg/kg, after 15 minutes", "result": 214, "unit": "%"},
      {"measurement": "Pancreatic Juice Secretion, Total", "setting": "[4]; i.v. 300 μg/kg", "result": "1444 ± 214", "unit": "µL"},
      {"measurement": "total volume of pancreatic juice as compared with the control (100%)", "setting": "[4]; i.v. 1000 μg/Kg", "result": 254, "unit": "%"},
      {"measurement": "Amount of Bicarbonate Ion Secretion", "setting": "[4]; i.v. 1000 μg/kg", "result": "224 ± 24.7", "unit": "µEq/h"},
      {"measurement": "Bicarbonate Ion Concentration", "setting": "[4]; i.v. 1000 μg/kg", "result": "79.8 ± 5.6", "unit": "mEq/l"},
      {"measurement": "Pancreatic Juice Secretion", "setting": "[4]; i.v. 1000 μg/kg, 0-15 min", "result": "1363 ± 117", "unit": "µL"},
      {"measurement": "Pancreatic Juice Secretion", "setting": "[4]; i.v. 1000 μg/kg, 15-30 min", "result": "573 ± 69", "unit": "µL"},
      {"measurement": "Pancreatic Juice Secretion", "setting": "[4]; i.v. 1000 μg/kg, 30-45 min", "result": "455 ± 100", "unit": "µL"},
      {"measurement": "Pancreatic Juice Secretion", "setting": "[4]; i.v. 1000 μg/kg, 45-60 min", "result": "414 ± 112", "unit": "µL"},
      {"measurement": "pancreatic juice secretion as compared with the control (100%)", "setting": "[4]; i.v. 1000 μg/kg, after 15 minutes", "result": 440, "unit": "%"},
      {"measurement": "pancreatic juice secretion as compared with the control (100%)", "setting": "[4]; i.v. 1000 μg/kg, after 30 minutes", "result": 202, "unit": "%"},
      {"measurement": "Pancreatic Juice Secretion, Total", "setting": "[4]; i.v. 1000 μg/kg", "result": "2805 ± 225", "unit": "µL"},
      {"measurement": "inhibition of platelet aggregation due to addition of B16BL6 cells", "setting": "[5]; 0.3 μM", "result": "partially inhibited"},
      {"measurement": "inhibition of platelet aggregation due to addition of B16BL6 cells", "setting": "[5]; final concentration of 3 μM or more", "result": "completely inhibited"},
      {"measurement": "IC50", "setting": "platelet aggregation [6]; inducer ADP", "result": 2500, "unit": "nM"},
      {"measurement": "IC50", "setting": "platelet aggregation [6]; inducer collagen", "result": 530, "unit": "nM"},
      {"measurement": "anti-platelet aggregation activity (in words)", "setting": "platelet aggregation [6]; in vitro, Table 2 results (human and rat PRP)", "result": "substantially equal to that of BL-3459 and BL-4162"}
    ]}
  ]
}
